According to PubChem BioAssay AID1919000 (Molecular Pharmacology Branch, DTP, NCI, 2023):
Several values for one entry are separate records, joined by “and”; a condition that tells them apart may be missing. Equal values may be shown once. Values belong to the compound of their own block, whether it stands above or below them.

Test system: 653999-131-R-J2-PDC complex spheroids, growth % test/control
Assay: Anticancer human tumor 653999-131-R-J2-PDC patient-derived lung adenocarcinoma cell line growth inhibition [AhR]
Conditions: for viability, T/C: stronger effect = lower value
Text: Multicellular complex tumor spheroid response to aryl hydrocarbon receptor antagonists in combination with a variety of drugs and investigational agents in selected tumor cell lines
The current study was undertaken to assess response to aryl hydrocarbon receptor antagonists in combination with standard-of-care drugs and investigational agents in solid tumor complex spheroid models. Complex spheroids include a stromal component modeled by human endothelial cells (HUVEC) and fibroblasts modeled by human mesenchymal stem cells (MSCs). The concentration ranges selected for each drug and investigational agent were based upon clinically achievable concentrations if the clinical Cmax of the agent was known.
Compounds. The drugs and investigational agents: BAY 2416964 (NSC825713), GNF351 (NSC835774), CH-223191 (NSC835775), CPI-455 (NSC825282), aza-TdCyd (NSC777586), decitabine (NSC127716), belinostat (NSC758774), entinostat (NSC756642), pevonedistat (NSC761192), tazemetostat (NSC777109), talazoparib (NSC765396), olaparib (NSC753686), selinexor (NSC780203), nedisertib (M3814, NSC802822), bortezomib (NSC756655), venetoclax (NSC766270), doxorubicin (NSC123127), elimusertib (BAY189344, NSC800525), ceralasertib (AZD6738, NSC777638), TAK-243 (NSC785004), alisertib (NSC759677), etoposide (NSC141540), topotecan (NSC609699), eribulin (NSC707389), gemcitabine (NSC613327), carboplatin (NSC241240), cisplatin (NSC119875), and SN-38 (NSC673596) were obtained from the National Cancer Institute (NCI) Developmental Therapeutics Program Chemical Repository (32). The FDA-approved anticancer drug set is available from the Developmental Therapeutics Program at https://dtp.cancer.gov/organization/dscb/obtaining/available plates.htm. […] The stock solutions were prepared in dimethyl sulfoxide (DMSO, Sigma-Aldrich, St. Louis, MO, cat. D2650), except for the platinum compounds which were prepared in saline (Quality Biological, Gaithersburg, MD, cat. 114-055-101), at 800-fold the tested concentration and stored at -70 degrees C prior to their use. All drugs and investigational agents were tested over a range starting from a high concentration at or near the clinical Cmax and decreasing in half-log increments. If the clinical Cmax for an agent had not been determined, the highest concentration tested was 10 microM (Table 1).
Cell Culture. All cells were maintained in an incubator at 37 degrees C and 5% CO2 with 95% humidity. The PDC lines were cultured according to standard operating procedures established by the NCI PDMR (https://pdmr.cancer.gov). Briefly, all PDCs were thawed and cultured in Matrigel-coated flasks prepared with a working solution of 1X Ham's F-12 nutrient mix, without supplementation (Invitrogen, Waltham, MA, cat. 11765054), 100 U/mL penicillin-streptomycin (Invitrogen, cat. 15140122), and 2.5% Matrigel (Corning Inc., Corning, NY, cat. 354248) for the first three passages. All PDCs were cultured in complete DMEM/F-12 media containing advanced DMEM/F-12 (Invitrogen, cat. 12634028), 4.9% defined fetal bovine serum, heat inactivated (HyClone Laboratories Inc., Logan, UT, cat. SH30070.03HI), 389 ng/mL hydrocortisone (Sigma-Aldrich, cat. H4001), 9.7 ng/mL human EGF recombinant protein (Invitrogen, cat. PHG0313), 23.4 microg/mL adenine (Sigma-Aldrich, cat. A2786), 97.3 U/mL penicillin-streptomycin (Invitrogen, cat. 15140122), 1.9 mM L-glutamine (Invitrogen, cat. 25030081), and 9.7 microM Y-27632 dihydrochloride (Tocris Bioscience, Bristol, United Kingdom, cat. 1254). The PDCs were cultured in complete DMEM/F12 media without 10 microM Y-27632 dihydrochloride for at least two passages prior to the screen. The established cell lines NCI-H1341 and […] were cultured in DMEM/F-12, HEPES (Invitrogen, cat. 11330032), 5% defined fetal bovine serum (HyClone Laboratories Inc., cat. SH30070.03), ITS premix universal culture supplement [insulin (5 microg/mL), transferrin (5 microg/mL), and selenious acid (5 ng/mL)] […]

[1] = curve of first compound, second compound 0.1 µM
[2] = curve of first compound, second compound 0.316 µM
[3] = curve of first compound, second compound 1 µM
[4] = curve of first compound, second compound 3.16 µM
[5] = curve of first compound, second compound 10 µM
[6] = second compound 0.1 µM, first compound 0.0316 µM
[7] = second compound 0.1 µM, first compound 0.1 µM
[8] = second compound 0.1 µM, first compound 0.316 µM
[9] = second compound 0.1 µM, first compound 1 µM
[10] = second compound 0.1 µM, first compound 3.16 µM
[11] = second compound 0.1 µM, first compound 10 µM
[12] = second compound 0.316 µM, first compound 0.0316 µM
[13] = second compound 0.316 µM, first compound 0.1 µM
[14] = second compound 0.316 µM, first compound 0.316 µM
[15] = second compound 0.316 µM, first compound 1 µM
[16] = second compound 0.316 µM, first compound 3.16 µM
[17] = second compound 0.316 µM, first compound 10 µM
[18] = second compound 1 µM, first compound 0.0316 µM
[19] = second compound 1 µM, first compound 0.1 µM
[20] = second compound 1 µM, first compound 0.316 µM
[21] = second compound 1 µM, first compound 1 µM
[22] = second compound 1 µM, first compound 3.16 µM
[23] = second compound 1 µM, first compound 10 µM
[24] = second compound 3.16 µM, first compound 0.0316 µM
[25] = second compound 3.16 µM, first compound 0.1 µM
[26] = second compound 3.16 µM, first compound 0.316 µM
[27] = second compound 3.16 µM, first compound 1 µM
[28] = second compound 3.16 µM, first compound 3.16 µM
[29] = second compound 3.16 µM, first compound 10 µM
[30] = second compound 10 µM, first compound 0.0316 µM
[31] = second compound 10 µM, first compound 0.1 µM
[32] = second compound 10 µM, first compound 0.316 µM
[33] = second compound 10 µM, first compound 1 µM
[34] = second compound 10 µM, first compound 3.16 µM
[35] = second compound 10 µM, first compound 10 µM
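Further: spheroids exposed to agents for seven days.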

SMILES: COc1cc(Nc2ncc3c(n2)-c2ccc(Cl)cc2C(c2c(F)cccc2OC)=NC3)ccc1C(=O)O + CC(CO)NC(=O)c1cc(-c2ccc(Cl)cc2)nn(-c2cnn(C)c2)c1=O
IC50 [1]: > 10 µM | IC50 [2]: > 10 µM | IC50 [3]: > 10 µM | IC50 [4]: > 10 µM | IC50 [5]: > 10 µM | viability, T/C [6]: 95% | viability, T/C [7]: 80.9% | viability, T/C [8]: 77.6% | viability, T/C [9]: 76.8% | viability, T/C [10]: 66% | viability, T/C [11]: 64% | viability, T/C [12]: 92.6% | viability, T/C [13]: 73.5% | viability, T/C [14]: 74.8% | viability, T/C [15]: 62.4% | viability, T/C [16]: 70.8% | viability, T/C [17]: 65.2% | viability, T/C [18]: 98.2% | viability, T/C [19]: 76.1% | viability, T/C [20]: 83.9% | viability, T/C [21]: 70.8% | viability, T/C [22]: 77.8% | viability, T/C [23]: 68.5% | viability, T/C [24]: 94.2% | viability, T/C [25]: 83% | viability, T/C [26]: 79.1% | viability, T/C [27]: 74.7% | viability, T/C [28]: 77.5% | viability, T/C [29]: 77.4% | viability, T/C [30]: 92.8% | viability, T/C [31]: 81% | viability, T/C [32]: 78.4% | viability, T/C [33]: 74% | viability, T/C [34]: 67.9% | viability, T/C [35]: 80.4%

SMILES: Nc1ccn(C2OC(CO)C(O)C2(F)F)c(=O)n1 (configuration not stated)
viability, T/C (compound 0.0316 µM): 69.1% and 74.2% and 70.3% | viability, T/C (compound 0.1 µM): 63.2% and 70.2% and 62.9% | viability, T/C (compound 0.316 µM): 50.8% and 61.3% and 51.9% | viability, T/C (compound 1 µM): 41.5% and 56.2% and 43.5% | viability, T/C (compound 3.16 µM): 37.6% and 50.8% and 41.3% | viability, T/C (compound 10 µM): 32.7% and 46.7% and 36.1%

SMILES: Nc1ncn(C2CC(O)C(CO)O2)c(=O)n1 (configuration not stated)
viability, T/C (compound 0.00316 µM): 105% and 95.5% and 110% | viability, T/C (compound 0.01 µM): 106% and 102% and 111% | viability, T/C (compound 0.0316 µM): 96.8% and 96.9% and 93.9% | viability, T/C (compound 0.1 µM): 89.9% and 86.5% and 91.9% | viability, T/C (compound 0.316 µM): 86.2% and 91.9% and 90.9% | viability, T/C (compound 1 µM): 77.5% and 78.8% and 85.9% | IC50 (curve of compound): > 1 µM

SMILES: CCN(c1cc(-c2ccc(CN3CCOCC3)cc2)cc(C(=O)NCc2c(C)cc(C)[nH]c2=O)c1C)C1CCOCC1
viability, T/C (compound 0.00949 µM): 105% and 101% and 115% | viability, T/C (compound 0.03 µM): 104% and 95.7% and 106% | viability, T/C (compound 0.0949 µM): 114% and 88.5% and 110% | viability, T/C (compound 0.3 µM): 102% and 89.3% and 100% | viability, T/C (compound 0.949 µM): 108% and 98.8% and 96.9% | viability, T/C (compound 3 µM): 94.6% and 104% and 96.3% | IC50 (curve of compound): > 3 µM

Continued, in another order:

IC50 (curve of compound): 3.45 µM and 4.2 µM and 3.56 µM
SMILES: O=C(C=Cc1cccc(S(=O)(=O)Nc2ccccc2)c1)NO
viability, T/C (compound 0.0316 µM): 91.5% and 94.1% and 91.6% | viability, T/C (compound 0.1 µM): 92.4% and 95.9% and 101% | viability, T/C (compound 0.316 µM): 82.2% and 91.9% and 96.7% | viability, T/C (compound 1 µM): 77% and 86.9% and 80.2% | viability, T/C (compound 3.16 µM): 52.3% and 62.5% and 55.9% | viability, T/C (compound 10 µM): 14.8% and 11.4% and 7.09%

IC50 [1]: 2.5 µM | IC50 [2]: 3.46 µM | IC50 [3]: 2.27 µM | IC50 [4]: 1.9 µM | IC50 [5]: 3.48 µM
SMILES: Nc1ccccc1NC(=O)c1ccc(CNC(=O)OCc2cccnc2)cc1 + Cc1ccccc1N=Nc1ccc(NC(=O)c2ccnn2C)c(C)c1
viability, T/C [6]: 91.9% | viability, T/C [7]: 83% | viability, T/C [8]: 79.2% | viability, T/C [9]: 73.7% | viability, T/C [10]: 43.4% | viability, T/C [11]: 12.3% | viability, T/C [12]: 91.4% | viability, T/C [13]: 83.5% | viability, T/C [14]: 69% | viability, T/C [15]: 64.9% | viability, T/C [16]: 62.3% | viability, T/C [17]: 14.1% | viability, T/C [18]: 83.8% | viability, T/C [19]: 85.1% | viability, T/C [20]: 70.4% | viability, T/C [21]: 58.5% | viability, T/C [22]: 50.4% | viability, T/C [23]: 13.9% | viability, T/C [24]: 89.3% | viability, T/C [25]: 84.7% | viability, T/C [26]: 70.2% | viability, T/C [27]: 54.4% | viability, T/C [28]: 50.5% | viability, T/C [29]: 13.3% | viability, T/C [30]: 86.4% | viability, T/C [31]: 81.6% | viability, T/C [32]: 71.4% | viability, T/C [33]: 59.6% | viability, T/C [34]: 63.1% | viability, T/C [35]: 13.4%
